Experimental findings from ChEMBL document CHEMBL5375983, “Discovery of YSR734: A Covalent HDAC Inhibitor with Cellular Activity in Acute Myeloid Leukemia and Duchenne Muscular Dystrophy” (J Med Chem, 2023) are described below.

One assay deals with T1, Histone deacetylase 11 (Homo sapiens, UniProt Q96DB2).
T1 sequence (Q96DB2 whole entry): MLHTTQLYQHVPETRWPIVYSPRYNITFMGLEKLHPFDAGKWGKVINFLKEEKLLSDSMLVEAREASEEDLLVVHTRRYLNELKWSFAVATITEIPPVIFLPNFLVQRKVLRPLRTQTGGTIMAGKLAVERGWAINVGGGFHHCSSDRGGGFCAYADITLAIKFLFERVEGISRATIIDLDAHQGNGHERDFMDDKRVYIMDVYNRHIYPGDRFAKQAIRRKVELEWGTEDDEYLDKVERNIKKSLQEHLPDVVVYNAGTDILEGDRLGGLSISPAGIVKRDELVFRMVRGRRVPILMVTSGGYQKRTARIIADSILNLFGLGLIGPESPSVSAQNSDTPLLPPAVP
Put plainly: Inhibition of full length recombinant human HDAC11 expressed in Sf9 cells using 6-carboxyfluorescein peptide as substrate preincubated with compound for 6 hrs followed by substrate addition and measured after 17 hrs by electrophoretic mobility shift assay. On the technique in general: A gel shift assay detects complexes by their altered migration in electrophoresis.

The test system of assay [1] is MV4-11. Nature of the assay: Induction of apoptosis in human MV4-11 cells assessed as healthy cells at 4 uM measured after 6 hrs by annexin V-FITC/PI staining based FACS assay (reference value: 63.50%). It is filed as functional.
In a further assay the target is T2, Histone deacetylase 7 (Homo sapiens, UniProt Q8WUI4).
T2 sequence (Q8WUI4 whole entry): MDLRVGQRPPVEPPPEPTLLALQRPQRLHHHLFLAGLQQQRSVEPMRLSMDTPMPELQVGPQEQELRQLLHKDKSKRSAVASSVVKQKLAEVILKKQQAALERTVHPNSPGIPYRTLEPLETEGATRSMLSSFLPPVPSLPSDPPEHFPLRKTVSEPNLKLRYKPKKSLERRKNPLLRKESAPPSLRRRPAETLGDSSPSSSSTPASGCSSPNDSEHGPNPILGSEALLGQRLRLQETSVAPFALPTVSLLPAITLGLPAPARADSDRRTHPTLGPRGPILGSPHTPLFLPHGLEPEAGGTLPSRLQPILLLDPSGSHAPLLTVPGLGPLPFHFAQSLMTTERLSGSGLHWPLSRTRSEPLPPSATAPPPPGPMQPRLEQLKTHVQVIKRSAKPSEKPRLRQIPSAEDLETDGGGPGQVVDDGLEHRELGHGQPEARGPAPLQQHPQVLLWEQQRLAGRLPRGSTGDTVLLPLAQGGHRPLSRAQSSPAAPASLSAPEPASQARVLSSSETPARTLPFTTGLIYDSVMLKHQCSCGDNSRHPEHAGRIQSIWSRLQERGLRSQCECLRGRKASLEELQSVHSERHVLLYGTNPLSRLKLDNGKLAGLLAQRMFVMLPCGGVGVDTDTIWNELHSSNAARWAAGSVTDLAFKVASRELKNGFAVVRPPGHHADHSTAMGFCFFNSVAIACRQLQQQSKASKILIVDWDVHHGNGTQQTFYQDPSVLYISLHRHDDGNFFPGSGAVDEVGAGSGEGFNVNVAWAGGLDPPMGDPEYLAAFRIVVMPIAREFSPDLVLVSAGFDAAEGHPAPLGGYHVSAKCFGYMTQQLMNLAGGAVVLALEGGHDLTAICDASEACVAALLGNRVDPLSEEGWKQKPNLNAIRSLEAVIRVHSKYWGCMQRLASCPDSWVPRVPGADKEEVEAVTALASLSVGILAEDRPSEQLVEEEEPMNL
Put plainly: Inhibition of HDAC7 (unknown origin) using 6-carboxyfluorescein peptide as substrate preincubated with compound for 6 hrs followed by substrate addition by electrophoretic mobility shift assay.

The target in assay [2] is T3, Histone deacetylase 2 (Homo sapiens, UniProt Q92769). Put plainly: Inhibition of HDAC2 (unknown origin) using 6-carboxyfluorescein peptide as substrate preincubated with compound for 6 hrs followed by substrate addition by electrophoretic mobility shift assay.
Another assay addresses T4, Histone deacetylase 8 (Homo sapiens, UniProt Q9BY41).
T4 sequence (Q9BY41 whole entry): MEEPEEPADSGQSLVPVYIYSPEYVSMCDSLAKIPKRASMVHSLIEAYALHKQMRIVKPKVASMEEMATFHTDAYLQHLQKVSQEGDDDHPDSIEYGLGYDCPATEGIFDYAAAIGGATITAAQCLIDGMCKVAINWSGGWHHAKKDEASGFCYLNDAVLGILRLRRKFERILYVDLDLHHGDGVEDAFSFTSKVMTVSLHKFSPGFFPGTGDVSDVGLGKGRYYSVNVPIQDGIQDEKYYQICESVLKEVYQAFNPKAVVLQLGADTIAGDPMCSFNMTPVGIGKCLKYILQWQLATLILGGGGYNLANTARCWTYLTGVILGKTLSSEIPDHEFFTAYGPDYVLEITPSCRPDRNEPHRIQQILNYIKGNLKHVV
Nature of the assay: Inhibition of full length recombinant human HDAC8 expressed in Sf9 cells using 6-carboxyfluorescein peptide as substrate preincubated with compound followed by substrate addition and measured after 3 hrs by electrophoretic mobility shift assay.

The target of assay [3] is T5, Polyamine deacetylase HDAC10 (Homo sapiens, UniProt Q969S8).
T5 sequence (Q969S8 whole entry): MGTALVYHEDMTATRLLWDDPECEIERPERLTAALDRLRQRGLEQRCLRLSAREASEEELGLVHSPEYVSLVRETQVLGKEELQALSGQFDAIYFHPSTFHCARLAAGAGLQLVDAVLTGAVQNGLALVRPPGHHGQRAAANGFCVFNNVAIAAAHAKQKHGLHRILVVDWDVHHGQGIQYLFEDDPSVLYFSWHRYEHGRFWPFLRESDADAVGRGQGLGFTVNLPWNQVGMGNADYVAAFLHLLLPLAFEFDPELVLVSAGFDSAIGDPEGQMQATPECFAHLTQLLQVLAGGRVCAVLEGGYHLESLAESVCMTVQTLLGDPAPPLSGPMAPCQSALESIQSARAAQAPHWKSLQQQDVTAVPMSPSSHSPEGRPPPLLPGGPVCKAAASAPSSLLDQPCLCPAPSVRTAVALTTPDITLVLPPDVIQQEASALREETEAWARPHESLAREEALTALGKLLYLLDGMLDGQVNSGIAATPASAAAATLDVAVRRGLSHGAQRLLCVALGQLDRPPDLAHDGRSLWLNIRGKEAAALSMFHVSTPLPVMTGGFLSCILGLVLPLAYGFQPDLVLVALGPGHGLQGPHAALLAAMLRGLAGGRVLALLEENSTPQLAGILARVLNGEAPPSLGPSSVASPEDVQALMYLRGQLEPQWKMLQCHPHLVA
Put plainly: Inhibition of HDAC10 (unknown origin) using 6-carboxyfluorescein peptide as substrate preincubated with compound for 6 hrs followed by substrate addition by electrophoretic mobility shift assay.

For assay [4], the target named is T3, Histone deacetylase 2. Put plainly: Inhibition of HDAC2 (unknown origin) using 6-carboxyfluorescein peptide as substrate preincubated with compound for 2 hrs followed by substrate addition by electrophoretic mobility shift assay.
For assay [5], the system named is MV4-11. Nature of the assay: Induction of apoptosis in human MV4-11 cells assessed as healthy cells at 1 uM measured after 6 hrs by annexin V-FITC/PI staining based FACS assay (reference value: 63.50%). The format is functional. (In flow cytometry, cells or beads pass a laser one at a time.)
The next assay concerns the target Histone deacetylase 5 (Homo sapiens, UniProt Q9UQL6). Nature of the assay: Inhibition of HDAC5 (unknown origin) using 6-carboxyfluorescein peptide as substrate preincubated with compound for 6 hrs followed by substrate addition by electrophoretic mobility shift assay.

pIC50: −log10 of the molar value.

T3 sequence (Q92769 whole entry): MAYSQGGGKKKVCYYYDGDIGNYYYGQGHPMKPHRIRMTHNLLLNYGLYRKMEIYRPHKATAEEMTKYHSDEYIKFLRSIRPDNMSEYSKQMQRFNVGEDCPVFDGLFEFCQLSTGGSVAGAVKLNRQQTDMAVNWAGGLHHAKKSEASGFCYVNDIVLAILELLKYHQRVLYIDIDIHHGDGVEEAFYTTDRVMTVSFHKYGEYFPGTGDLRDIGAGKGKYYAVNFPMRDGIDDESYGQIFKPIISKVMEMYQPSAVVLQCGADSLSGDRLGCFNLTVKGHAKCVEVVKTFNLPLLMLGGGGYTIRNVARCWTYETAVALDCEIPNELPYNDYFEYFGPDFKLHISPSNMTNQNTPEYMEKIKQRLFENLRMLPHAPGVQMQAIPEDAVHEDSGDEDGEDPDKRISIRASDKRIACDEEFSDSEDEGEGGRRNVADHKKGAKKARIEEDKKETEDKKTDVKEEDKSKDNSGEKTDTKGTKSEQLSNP
Sequence of Histone deacetylase 5 (Q9UQL6 whole entry): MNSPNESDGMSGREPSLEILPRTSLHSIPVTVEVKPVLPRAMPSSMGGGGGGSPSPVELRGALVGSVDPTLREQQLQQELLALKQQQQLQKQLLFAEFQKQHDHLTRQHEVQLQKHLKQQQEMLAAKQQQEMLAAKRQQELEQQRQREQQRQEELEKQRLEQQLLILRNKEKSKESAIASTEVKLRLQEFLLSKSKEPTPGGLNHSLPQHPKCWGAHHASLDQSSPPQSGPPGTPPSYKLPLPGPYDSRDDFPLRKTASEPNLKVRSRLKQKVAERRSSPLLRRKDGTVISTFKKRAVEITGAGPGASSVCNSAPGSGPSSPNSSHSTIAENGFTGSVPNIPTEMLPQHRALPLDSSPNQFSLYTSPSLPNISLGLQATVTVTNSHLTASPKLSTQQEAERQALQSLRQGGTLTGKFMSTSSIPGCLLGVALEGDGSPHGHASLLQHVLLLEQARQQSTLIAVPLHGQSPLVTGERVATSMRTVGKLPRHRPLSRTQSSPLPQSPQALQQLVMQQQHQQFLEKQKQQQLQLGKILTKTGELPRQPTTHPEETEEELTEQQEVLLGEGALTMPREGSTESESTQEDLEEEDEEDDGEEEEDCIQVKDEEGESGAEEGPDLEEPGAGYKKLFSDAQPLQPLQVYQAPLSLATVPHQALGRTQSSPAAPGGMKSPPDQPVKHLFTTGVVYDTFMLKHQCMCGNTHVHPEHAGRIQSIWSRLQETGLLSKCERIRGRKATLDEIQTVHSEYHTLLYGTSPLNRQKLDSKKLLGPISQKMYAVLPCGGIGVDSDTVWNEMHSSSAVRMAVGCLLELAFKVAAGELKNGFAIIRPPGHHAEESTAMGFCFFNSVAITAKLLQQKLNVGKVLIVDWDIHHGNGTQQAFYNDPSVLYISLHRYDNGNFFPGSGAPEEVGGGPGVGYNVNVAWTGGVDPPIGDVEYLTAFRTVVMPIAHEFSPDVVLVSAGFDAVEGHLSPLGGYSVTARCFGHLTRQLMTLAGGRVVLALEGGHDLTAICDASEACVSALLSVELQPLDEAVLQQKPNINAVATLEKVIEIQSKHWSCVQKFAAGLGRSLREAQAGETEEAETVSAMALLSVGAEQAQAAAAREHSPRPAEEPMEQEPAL

A word on the pIC50: it is the negative decadic logarithm of the IC50, by convention in mol/L. For the compound `Nc1ccccc1NC(=O)c1ccc(CNC(=O)OC2CCN(S(=O)(=O)c3c(F)c(F)c(F)c(F)c3F)CC2)cc1`, the pIC50 on Histone deacetylase 11 is below 5.70; at Histone deacetylase 7, below 5.00; at Histone deacetylase 2 [2] it was 6.81; at Histone deacetylase 8 it was below 5.00; in assay [3], below 5.00; on Histone deacetylase 2 [4] it was 6.49. Also, the pIC50 at Histone deacetylase 5 is below 5.00. Besides, the Activity in the assay on MV4-11 [1] was 4.57%; with MV4-11 [5] it was 23.54%.
